Here are results for 18 compounds from patent publication US12582654B2, “Cyano-substituted pyridine and cyano-substituted pyrimidine compound and preparation method therefor and application thereof” (BEIJING SCITECH-MQ PHARMACEUTICALS LIMITED, priority 2019, dated 2026).

Assay [1] deals with T1, Ba/F3 ETV6-FGFR4-V550L cells (Homo sapiens, UniProt P22455, V550L, cells depend on it).
T1 construct: fused on or other part: N-terminal part of ETV6 (TEL), the oligomerising partner of the fusion; already named as the first entry; P41212 (Transcription factor ETV6)
Description: Inhibition of cell proliferation (CCK-8), Ba/F3 ETV6-FGFR4-V550L cells. The following applies: 72 hours of incubation, read-out: Ba/F3 ETV6-FGFR4-V550L IC50. The assay is classed as cell-based. Summed up:
(§1)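 Ba/F3 cells expressing ETV6-FGFR4 or ETV6-FGFR4-V550L exposed for 72 h to 9 concentrations from 4-fold serial dilution (0.25% DMSO final). Viability by CCK-8, OD 450 nm after 1–2 h at 37 °C, relative to untreated and cell-free blanks; IC50 from curve fitting.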

The target of another assay is FGFR4 kinase (Homo sapiens, UniProt P22455). Put plainly: Inhibition of FGFR4 kinase activity (ULight-labeled JAK-1 peptide, EU665/EU615 reading). The assay is classed as biochemical. The following applies: FGFR4 kinase 3.85 nM, ATP 100 μM, enzymatic reaction 2 hours. Summed up: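 TR-FRET kinase assay using 3.85 nM FGFR4, 100 μM ATP and 100 nM ULight-JAK-1 (Tyr1023) peptide; 5 min enzyme–compound preincubation, then 2 h at room temperature. Compounds at 11 3-fold dilutions from 2.5 μM down to 0.042 nM, 1% DMSO. IC50 from EU665/EU615 ratio inhibition curves.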

The next assay deals with FGFR4 V550L kinase (Homo sapiens, UniProt P22455, V550L). Put plainly: Inhibition of FGFR4 V550L mutant kinase activity (ULight-labeled PolyGT, EU665/EU615 reading). Type of assay: biochemical. The following applies: FGFR4 V550L kinase 1 nM, ATP 10 μM, enzymatic reaction 2 hours. Summed up:
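TR-FRET kinase assay: 1 nM FGFR4 V550L, 10 μM ATP, 100 nM ULight-PolyGT substrate, 2 h at room temperature after 5 min compound–enzyme preincubation, 1% DMSO. Compound tested as 11-point 3-fold dilution from 2.5 μM to 0.042 nM final. Signal as EU665/EU615 ratio; IC50 fitted from % inhibition.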

Another assay has as its target T2, Ba/F3 ETV6-FGFR4 cells (Homo sapiens, UniProt P22455).
T2 construct: fused on or other part: N-terminal part of ETV6 (TEL), the oligomerising partner that makes the FGFR4 kinase constitutively active; P41212 (Transcription factor ETV6)
Description: Inhibition of cell proliferation (CCK-8), Ba/F3 ETV6-FGFR4 cells. The assay is classed as cell-based. The following applies: 72 hours of incubation, read-out: Ba/F3 ETV6-FGFR4 IC50. Summed up:
as §1

FGFR4 V550L kinase, sequence (P22455 22-802 V550L): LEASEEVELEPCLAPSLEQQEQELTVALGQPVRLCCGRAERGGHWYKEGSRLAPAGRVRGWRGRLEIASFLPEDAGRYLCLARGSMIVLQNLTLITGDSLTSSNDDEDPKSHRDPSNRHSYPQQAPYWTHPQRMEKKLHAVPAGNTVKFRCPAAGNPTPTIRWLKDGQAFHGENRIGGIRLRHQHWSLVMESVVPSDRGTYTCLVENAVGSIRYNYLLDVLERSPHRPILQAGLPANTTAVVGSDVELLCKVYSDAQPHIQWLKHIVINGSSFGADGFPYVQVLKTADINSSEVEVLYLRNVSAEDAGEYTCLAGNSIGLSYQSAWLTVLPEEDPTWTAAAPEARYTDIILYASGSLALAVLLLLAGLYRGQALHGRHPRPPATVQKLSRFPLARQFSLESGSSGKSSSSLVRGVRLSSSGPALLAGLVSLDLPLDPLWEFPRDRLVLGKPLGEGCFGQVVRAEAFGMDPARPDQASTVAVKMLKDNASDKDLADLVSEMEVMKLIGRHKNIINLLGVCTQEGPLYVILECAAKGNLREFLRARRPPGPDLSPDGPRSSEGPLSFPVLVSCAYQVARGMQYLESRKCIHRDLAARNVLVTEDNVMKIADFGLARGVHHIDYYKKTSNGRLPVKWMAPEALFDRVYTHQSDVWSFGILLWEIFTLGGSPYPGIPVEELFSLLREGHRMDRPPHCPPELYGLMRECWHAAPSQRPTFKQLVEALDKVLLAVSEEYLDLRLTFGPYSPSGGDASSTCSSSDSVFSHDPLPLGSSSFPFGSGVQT
FGFR4 kinase, sequence (P22455 22-802): as the sequence (P22455 22-802 V550L) above, with L529V counted along it
T1 sequence (P22455 whole entry V550L, the tested form may be a part): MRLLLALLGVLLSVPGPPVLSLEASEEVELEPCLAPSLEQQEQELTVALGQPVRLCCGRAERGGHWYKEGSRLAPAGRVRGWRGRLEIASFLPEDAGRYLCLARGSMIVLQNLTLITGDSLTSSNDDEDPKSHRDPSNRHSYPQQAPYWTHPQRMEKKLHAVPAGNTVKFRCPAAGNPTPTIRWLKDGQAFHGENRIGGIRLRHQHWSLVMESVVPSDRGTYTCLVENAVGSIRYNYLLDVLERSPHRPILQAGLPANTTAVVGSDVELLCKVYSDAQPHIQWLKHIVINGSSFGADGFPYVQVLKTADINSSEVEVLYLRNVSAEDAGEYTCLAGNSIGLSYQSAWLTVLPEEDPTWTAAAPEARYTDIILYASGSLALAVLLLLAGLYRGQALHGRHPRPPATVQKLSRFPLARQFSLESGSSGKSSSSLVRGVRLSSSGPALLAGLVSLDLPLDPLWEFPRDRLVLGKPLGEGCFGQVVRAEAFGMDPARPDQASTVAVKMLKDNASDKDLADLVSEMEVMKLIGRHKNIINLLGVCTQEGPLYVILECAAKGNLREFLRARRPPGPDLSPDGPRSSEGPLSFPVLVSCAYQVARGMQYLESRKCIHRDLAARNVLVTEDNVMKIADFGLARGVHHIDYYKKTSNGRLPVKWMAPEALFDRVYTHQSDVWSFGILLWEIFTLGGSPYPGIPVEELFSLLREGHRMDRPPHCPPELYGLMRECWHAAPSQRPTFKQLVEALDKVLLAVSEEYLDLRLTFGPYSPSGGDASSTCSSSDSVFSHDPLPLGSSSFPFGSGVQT
T2 sequence (P22455 whole entry, change not shown, the tested form may be a part): as the sequence (P22455 whole entry V550L, the tested form may be a part) above, with L550V counted along it

Usually IC50 stands for the point on the concentration scale where inhibition reaches its midpoint. In the case of `C=CC(=O)Nc1cc(N2CCN(CC)CC2)ccc1Nc1ncc(C#N)c(Nc2ccc(OCCOC)cc2OC(C)C)n1` [Example 33, N-(2-((5-cyano-4-((2-isopropoxy-4-(2-methoxyethoxy)phenyl)amino)pyrimidin-2-yl)amino)-5-(4-ethylpiperazin-1-yl)phenyl) acrylamide], the GI50 (in assay [1]; at Ba/F3 ETV6-FGFR4 cells) was not above 10 nM each time. Besides, the IC50 against FGFR4 kinase is not above 10 nM; at FGFR4 V550L kinase it was 10 to 50 nM.

Take `C=CC(=O)Nc1cc(N2CCN(CC)CC2)ccc1Nc1ncc(C#N)c(Nc2ccc(C(F)(F)F)cc2OC(C)C)n1` [Example 34, N-(2-((5-cyano-4-((2-isopropoxy-4-(trifluoromethyl)phenyl)amino)pyrimidin-2-yl)amino)-5-(4-ethylpiperazin-1-yl)phenyl) acrylamide]: the GI50 (in assay [1]; at Ba/F3 ETV6-FGFR4 cells) was 10 to 50 nM each time. The IC50 lay within 50 to 100 nM at FGFR4 kinase and 10 to 50 nM against FGFR4 V550L kinase.

Consider `C=CC(=O)Nc1cc(N2CCN(CC)CC2)ccc1Nc1ncc(C#N)c(Nc2ccc(S(C)(=O)=O)cc2OC(C)C)n1` [Example 35, N-(2-((5-cyano-4-((2-isopropoxy-4-(methylsulfonyl)phenyl)amino)pyrimidin-2-yl)amino)-5-(4-ethylpiperazin-1-yl)phenyl) acrylamide], for which the GI50 (in assay [1]; on Ba/F3 ETV6-FGFR4 cells) was 10 to 50 nM each time. Moreover, the IC50 at FGFR4 kinase and against FGFR4 V550L kinase was 10 to 50 nM in each case.

For `C=CC(=O)Nc1cc(N2CCN(CC)CC2)ccc1Nc1ncc(C#N)c(Nc2ccc(C3CC3)cc2OC(C)C)n1` [Example 36, N-(2-((5-cyano-4-((4-cyclopropyl-2-isopropoxyphenyl)amino)pyrimidin-2-yl)amino)-5-(4-ethylpiperazin-1-yl)phenyl) acrylamide], the GI50 (in assay [1]; on Ba/F3 ETV6-FGFR4 cells) was 10 to 50 nM in each case. In addition, the IC50 against FGFR4 kinase and on FGFR4 V550L kinase was 10 to 50 nM in each case.

Turning to `C=CC(=O)Nc1cc(N2CCN(C(C)C)CC2)ccc1Nc1ncc(C#N)c(Nc2ccccc2OC(C)C)n1` [Example 37, N-(2-((5-cyano-4-((2-isopropoxyphenyl)amino)pyrimidin-2-yl)amino)-5-(4-isopropylpiperazin-1-yl)phenyl) acrylamide], the GI50 (in assay [1]; on Ba/F3 ETV6-FGFR4 cells) was not above 10 nM in each case. The IC50 at FGFR4 kinase and against FGFR4 V550L kinase was not above 10 nM throughout.

On to `C=CC(=O)Nc1cc(N2CCN(CC)CC2)ccc1Nc1ncc(C#N)c(Nc2ccc(CCC)cc2OC(C)C)n1` [Example 38, N-(2-((5-cyano-4-((2-isopropoxy-4-propylphenyl)amino)pyrimidin-2-yl)amino)-5-(4-ethylpiperazin-1-yl)phenyl) acrylamide], for which the GI50 (in assay [1]; at Ba/F3 ETV6-FGFR4 cells) was 10 to 50 nM each time. The IC50 against FGFR4 kinase and on FGFR4 V550L kinase was 50 to 100 nM throughout.

Take `C=CC(=O)Nc1cc(N2CCC(N3CCN(C)CC3)CC2)ccc1Nc1ncc(C#N)c(Nc2ccc(F)cc2OC(C)C)n1` [Example 39, N-(2-((5-cyano-4-((4-fluoro-2-isopropoxyphenyl)amino)pyrimidin-2-yl)amino)-5-(4-(4-methylpiperazin-1-yl)piperidin-1-yl)phenyl) acrylamide]: the GI50 (in assay [1]; on Ba/F3 ETV6-FGFR4 cells) was not above 10 nM throughout. The 50% inhibitory concentration (IC50) against FGFR4 kinase and against FGFR4 V550L kinase was not above 10 nM each time.

As to `C=CC(=O)Nc1cc(N2CCC(N3CCN(C)CC3)CC2)c(F)cc1Nc1ncc(C#N)c(Nc2ccc(F)cc2OC(C)C)n1` [Example 40, N-(2-((5-cyano-4-((4-fluoro-2-isopropoxyphenyl)amino)pyrimidin-2-yl)amino)-4-fluoro-5-(4-(4-methylpiperazin-1-yl)piperidin-1-yl)phenyl) acrylamide], the GI50 (in assay [1]; at Ba/F3 ETV6-FGFR4 cells) was not above 10 nM each time. The IC50 against FGFR4 kinase and on FGFR4 V550L kinase was 10 to 50 nM in each case.

`C=CC(=O)Nc1cc(N2CCC(N3CCN(C)CC3)CC2)ccc1Nc1ncc(C#N)c(Nc2ccc(C(N)=O)cc2OC(C)C)n1` [Example 41, 4-((2-((2-acrylamido-4-(4-(4-methylpiperazin-1-yl)piperidin-1-yl)phenyl)amino)-5-cyanopyrimidin-4-yl)amino)-3-isopropoxybenzamide]: the GI50 (in assay [1]; on Ba/F3 ETV6-FGFR4 cells) was 100 to 1000 nM each time. Moreover, the IC50 was 10 to 50 nM against FGFR4 kinase and not above 10 nM on FGFR4 V550L kinase.

Regarding `C=CC(=O)Nc1cc(N2CCC(N3CCC(C)(O)CC3)CC2)ccc1Nc1ncc(C#N)c(Nc2ccccc2OC(C)C)n1` [Example 42, N-(2-((5-cyano-4-((2-isopropoxyphenyl)amino)pyrimidin-2-yl)amino)-5-(4-hydroxy-4-methyl-[1,4′-bipiperidin]-1′-yl)phenyl) acrylamide], the GI50 (in assay [1]; on Ba/F3 ETV6-FGFR4 cells) was not above 10 nM each time. The IC50 on FGFR4 kinase and against FGFR4 V550L kinase was not above 10 nM in each case.

In the case of `C=CC(=O)Nc1cc(N2CCC(N3CCN(C)C(=O)C3)CC2)ccc1Nc1ncc(C#N)c(Nc2ccccc2OC(C)C)n1` [Example 43, N-(2-((5-cyano-4-((2-isopropoxyphenyl)amino)pyrimidin-2-yl)amino)-5-(4-(4-methyl-3-oxopiperazin-1-yl)piperidin-1-yl)phenyl) acrylamide], the GI50 (in assay [1]; at Ba/F3 ETV6-FGFR4 cells) was not above 10 nM each time. The concentration for half-maximal inhibition (IC50) against FGFR4 kinase and on FGFR4 V550L kinase was 10 to 50 nM each time.

Consider `C=CC(=O)Nc1cc(N2CCC(N3CCN(C)C(=O)C3)CC2)c(F)cc1Nc1ncc(C#N)c(Nc2ccccc2OC(C)C)n1` [Example 44, N-(2-((5-cyano-4-((2-isopropoxyphenyl)amino)pyrimidin-2-yl)amino)-4-fluoro-5-(4-(4-methyl-3-oxopiperazin-1-yl)piperidin-1-yl)phenyl) acrylamide], for which the GI50 (in assay [1]; at Ba/F3 ETV6-FGFR4 cells) was not above 10 nM throughout. For the same compound, the half-maximal inhibitory concentration (IC50) on FGFR4 kinase and on FGFR4 V550L kinase was 10 to 50 nM throughout.

On to `C=CC(=O)Nc1cc(N2CCC(N3CCN(C)C(=O)C3)CC2)ccc1Nc1ncc(C#N)c(Nc2ccc(F)cc2OC(C)C)n1` [Example 45, N-(2-((5-cyano-4-((4-fluoro-2-isopropoxyphenyl)amino)pyrimidin-2-yl)amino)-5-(4-(4-methyl-3-oxopiperazin-1-yl)piperidin-1-yl)phenyl) acrylamide], for which the GI50 (in assay [1]; on Ba/F3 ETV6-FGFR4 cells) was not above 10 nM each time. Besides, the IC50 against FGFR4 kinase and on FGFR4 V550L kinase was 10 to 50 nM in each case.

For the compound `C=CC(=O)Nc1cc(N2CCC(N3CCN(C)CC3=O)CC2)ccc1Nc1ncc(C#N)c(Nc2ccccc2OC(C)C)n1` [Example 46, N-(2-((5-cyano-4-((2-isopropoxyphenyl)amino)pyrimidin-2-yl)amino)-5-(4-(4-methyl-2-oxopiperazin-1-yl)piperidin-1-yl)phenyl) acrylamide], the GI50 (in assay [1]; at Ba/F3 ETV6-FGFR4 cells) was not above 10 nM each time. Further, the IC50 on FGFR4 kinase and against FGFR4 V550L kinase was 10 to 50 nM throughout.

For the compound `C=CC(=O)Nc1cc(N2CCC(N3CCN(C)CC3=O)CC2)ccc1Nc1ncc(C#N)c(Nc2ccc(F)cc2OC(C)C)n1` [Example 47, N-(2-((5-cyano-4-((4-fluoro-2-isopropoxyphenyl)amino)pyrimidin-2-yl)amino)-5-(4-(4-methyl-2-oxopiperazin-1-yl)piperidin-1-yl)phenyl) acrylamide], the GI50 (in assay [1]; at Ba/F3 ETV6-FGFR4 cells) was not above 10 nM in each case. Moreover, the IC50 on FGFR4 kinase and on FGFR4 V550L kinase was 10 to 50 nM each time.

As for `C=CC(=O)Nc1cc(N2CCC(N3CCN(C)CC3=O)CC2)c(F)cc1Nc1ncc(C#N)c(Nc2ccccc2OC(C)C)n1` [Example 48, N-(2-((5-cyano-4-((2-isopropoxyphenyl)amino)pyrimidin-2-yl)amino)-4-fluoro-5-(4-(4-methyl-2-oxopiperazin-1-yl)piperidin-1-yl)phenyl) acrylamide], the GI50 (in assay [1]; at Ba/F3 ETV6-FGFR4 cells) was not above 10 nM in each case. For the same compound, the half-maximal inhibitory concentration (IC50) against FGFR4 kinase and at FGFR4 V550L kinase was 10 to 50 nM throughout.

With `C=CC(=O)Nc1cc(N2CCN(C3CCN(C)CC3)CC2)ccc1Nc1ncc(C#N)c(Nc2ccccc2OC(C)C)n1` [Example 49, N-(2-((5-cyano-4-((2-isopropoxyphenyl)amino)pyrimidin-2-yl)amino)-5-(4-(1-methylpiperidin-4-yl)piperazin-1-yl)phenyl) acrylamide], the GI50 (in assay [1]; at Ba/F3 ETV6-FGFR4 cells) was not above 10 nM throughout. Besides, the IC50 against FGFR4 kinase and against FGFR4 V550L kinase was not above 10 nM throughout.

In the case of `C=CC(=O)Nc1cc(N2CCC(N3CCN(C(C)=O)CC3)CC2)ccc1Nc1ncc(C#N)c(Nc2ccccc2OC(C)C)n1` [Example 50, N-(5-(4-(4-acetylpiperazin-1-yl)piperidin-1-yl)-2-((5-cyano-4-((2-isopropoxyphenyl)amino)pyrimidin-2-yl)amino)phenyl) acrylamide], the GI50 (in assay [1]; on Ba/F3 ETV6-FGFR4 cells) was not above 10 nM each time. In addition, the half-inhibitory concentration (IC50) against FGFR4 kinase was 10 to 50 nM; on FGFR4 V550L kinase, not above 10 nM.
